According to PubChem BioAssay AID256 (DTP/NCI, 2004):
Values joined by “and” are separate entries in the source; they are usually repeats but may differ in a detail not shown here. Identical values can stand only once. Inconclusive results and toxic doses are left out. The calls were made as follows: active = survival T/C of 150% or more; inactive = T/C below 125% in these data.

Tested on: CD2F1 mice, L1210 leukemia ip, survival T/C
Test: NCI In Vivo Anticancer Drug Screen. Data for tumor model L1210 Leukemia (intraperitoneal) in CD2F1 (CDF1) mice
Details: higher = longer survival
Outline: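 Implant tumor; dose compound or vehicle; measure endpoint in both groups; report treated divided by control.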

[1] = endpoint: mean survival time, dose: 50.0 mg/kg/injection, schedule: Q01DX009 (ip), vehicle: saline
[2] = endpoint: mean survival time, dose: 100.0 mg/kg/injection, schedule: Q01DX009 (ip), vehicle: saline
[3] = endpoint: mean survival time, dose: 100.0 mg/kg/injection, schedule: Q04DX003 (ip), vehicle: saline
[4] = endpoint: mean survival time, dose: 200.0 mg/kg/injection, schedule: Q01DX009 (ip), vehicle: saline
[5] = endpoint: mean survival time, dose: 200.0 mg/kg/injection, schedule: Q04DX003 (ip), vehicle: saline
[6] = endpoint: mean survival time, dose: 400.0 mg/kg/injection, schedule: Q04DX003 (ip), vehicle: saline
[7] = endpoint: mean survival time, dose: 100.0 mg/kg/injection, schedule: Q01DX001 (ip), vehicle: saline with Tween-80
[8] = endpoint: mean survival time, dose: 100.0 mg/kg/injection, schedule: Q01DX009 (ip), vehicle: saline with Tween-80
[9] = endpoint: mean survival time, dose: 100.0 mg/kg/injection, schedule: Q04DX003 (ip), vehicle: saline with Tween-80
[10] = endpoint: mean survival time, dose: 200.0 mg/kg/injection, schedule: Q01DX001 (ip), vehicle: saline with Tween-80
[11] = endpoint: mean survival time, dose: 200.0 mg/kg/injection, schedule: Q01DX009 (ip), vehicle: saline with Tween-80
[12] = endpoint: mean survival time, dose: 200.0 mg/kg/injection, schedule: Q04DX003 (ip), vehicle: saline with Tween-80
[13] = endpoint: mean survival time, dose: 400.0 mg/kg/injection, schedule: Q04DX003 (ip), vehicle: saline with Tween-80
[14] = endpoint: mean survival time, dose: 100.0 mg/kg/injection, schedule: Q01DX009 (ip), vehicle: Klucel (hydroxypropylcellulose) (HPC)
[15] = endpoint: mean survival time, dose: 400.0 mg/kg/injection, schedule: Q01DX001 (ip), vehicle: saline with Tween-80
[16] = endpoint: mean survival time, dose: 50.0 mg/kg/injection, schedule: Q01DX009 (ip), vehicle: other
[17] = endpoint: mean survival time, dose: 100.0 mg/kg/injection, schedule: Q01DX009 (ip), vehicle: other
[18] = endpoint: mean survival time, dose: 200.0 mg/kg/injection, schedule: Q01DX009 (ip), vehicle: other
[19] = endpoint: mean survival time, dose: 400.0 mg/kg/injection, schedule: Q01DX009 (ip), vehicle: saline
[20] = endpoint: mean survival time, dose: 100.0 mg/kg/injection, schedule: Q04DX003 (ip), vehicle: Klucel (hydroxypropylcellulose) (HPC)
[21] = endpoint: mean survival time, dose: 200.0 mg/kg/injection, schedule: Q04DX003 (ip), vehicle: Klucel (hydroxypropylcellulose) (HPC)
[22] = endpoint: mean survival time, dose: 400.0 mg/kg/injection, schedule: Q04DX003 (ip), vehicle: Klucel (hydroxypropylcellulose) (HPC)
[23] = endpoint: mean survival time, dose: 100.0 mg/kg/injection, schedule: Q01DX001 (ip), vehicle: carboxymethylcellulose (CMC)
[24] = endpoint: mean survival time, dose: 200.0 mg/kg/injection, schedule: Q01DX001 (ip), vehicle: carboxymethylcellulose (CMC)

Measured: T/C

Nc1nc(N)c2nc(NCc3ccc(C(=O)NC(CCC(=O)O)C(=O)O)cc3)cnc2n1 (centres undefined)
inactive: [1] 103 % of control | endpoint: mean survival time, dose: 50.0 mg/kg/injection, schedule: Q04DX003 (ip), vehicle: saline 97 % of control | [2] 103 % of control | [3] 96 % of control | [4] 116 % of control | [5] 96 % of control | [6] 100 % of control

O=C(O)/C(=C\c1cccc([N+](=O)[O-])c1)c1ccccc1
inactive: [7] 97 % of control | [8] 91 % of control and 107 % of control | endpoint: mean survival time, dose: 100.0 mg/kg/injection, schedule: Q04DX002 (ip), vehicle: saline with Tween-80 100 % of control and 105 % of control | [9] 100 % of control | [10] 96 % of control | [11] 93 % of control | endpoint: mean survival time, dose: 200.0 mg/kg/injection, schedule: Q04DX002 (ip), vehicle: saline with Tween-80 101 % of control and 103 % of control | [12] 100 % of control | endpoint: mean survival time, dose: 400.0 mg/kg/injection, schedule: Q04DX002 (ip), vehicle: saline with Tween-80 90 % of control and 92 % of control | [13] 100 % of control

Cc1cc(C)c(COCc2cc(C)c(C)cc2C)cc1C
inactive: endpoint: mean survival time, dose: 25.0 mg/kg/injection, schedule: Q01DX009 (ip), vehicle: water 97 % of control | endpoint: mean survival time, dose: 50.0 mg/kg/injection, schedule: Q01DX009 (ip), vehicle: water 86 % of control | endpoint: mean survival time, dose: 100.0 mg/kg/injection, schedule: Q01DX009 (ip), vehicle: water 92 % of control | endpoint: mean survival time, dose: 200.0 mg/kg/injection, schedule: Q01DX009 (ip), vehicle: water 101 % of control | endpoint: mean survival time, dose: 400.0 mg/kg/injection, schedule: Q01DX009 (ip), vehicle: water 103 % of control

Cc1ccc(S(=O)(=O)Nc2ccc(Cl)c(Cl)c2)cc1
inactive: [7] 104 % of control | [14] 105 % of control | [10] 101 % of control | endpoint: mean survival time, dose: 200.0 mg/kg/injection, schedule: Q01DX009 (ip), vehicle: Klucel (hydroxypropylcellulose) (HPC) 95 % of control | [15] 103 % of control

CCCC1=NC(C)(C)CO1
inactive: [3] 92 % of control | [5] 94 % of control | [6] 105 % of control

CCOC(=O)C(Cc1ccc(CC(NC(C)=O)(C(=O)OCC)C(=O)OCC)cc1)(NC(C)=O)C(=O)OCC
inactive: endpoint: mean survival time, dose: 12.5 mg/kg/injection, schedule: Q01DX009 (ip), vehicle: other 96 % of control | endpoint: mean survival time, dose: 25.0 mg/kg/injection, schedule: Q01DX009 (ip), vehicle: other 94 % of control | [16] 97 % of control | [17] 91 % of control | [18] 92 % of control

C[N+](C)(C)CCS(=O)(=O)[O-]
inactive: [3] 102 % of control | [5] 100 % of control | [6] 100 % of control

Cc1ccc(CCOS(=O)(=O)c2ccc(C)cc2)cc1
inactive: [7] 97 % of control | [10] 95 % of control | [15] 95 % of control

CC(=O)NCCCCCCNC(C)=O
inactive: endpoint: mean survival time, dose: 25.0 mg/kg/injection, schedule: Q01DX009 (ip), vehicle: saline 96 % of control | [1] 100 % of control | [2] 100 % of control | [4] 94 % of control | [19] 100 % of control | endpoint: mean survival time, dose: 800.0 mg/kg/injection, schedule: Q01DX009 (ip), vehicle: saline 93 % of control

O=C1C2CCN(CC2)C1COc1cccc2ccccc12 (centres undefined)
inactive: [7] 106 % of control | [10] 95 % of control | [15] 102 % of control

CCCSCC(C)C
inactive: [9] 102 % of control | [12] 93 % of control | [13] 108 % of control

O=C(O)c1ccccc1F
inactive: [7] 96 % of control | [10] 107 % of control

CC(=O)C(C(c1ccccc1)N1CCCc2ccccc21)N1CCOCC1 (centres undefined)
inactive: [20] 98 % of control | [21] 101 % of control | [22] 108 % of control

Cc1[nH]nc2c1CCCC2
inactive: [17] 101 % of control | [18] 97 % of control

COc1ccc(C(=O)CCC(=O)O)c(C)c1
inactive: [3] 96 % of control | [5] 94 % of control | [6] 92 % of control

CC(=O)/C(=C\c1ccc(Cl)c(Cl)c1)C(=O)CCN(C)C
inactive: endpoint: median survival time, dose: 12.5 mg/kg/injection, schedule: Q01DX009 (ip), vehicle: saline 113 % of control and 98 % of control | endpoint: median survival time, dose: 25.0 mg/kg/injection, schedule: Q01DX009 (ip), vehicle: saline 95 % of control and 104 % of control and 109 % of control | endpoint: median survival time, dose: 50.0 mg/kg/injection, schedule: Q01DX009 (ip), vehicle: saline 113 % of control and 115 % of control and 110 % of control | endpoint: median survival time, dose: 100.0 mg/kg/injection, schedule: Q01DX009 (ip), vehicle: saline 97 % of control and 105 % of control

[CH3][Sn]([CH3])([Cl])[Cl]
inactive: endpoint: mean survival time, dose: 5.0 mg/kg/injection, schedule: Q01DX009 (ip), vehicle: saline 106 % of control | endpoint: mean survival time, dose: 10.0 mg/kg/injection, schedule: Q01DX009 (ip), vehicle: saline 98 % of control | endpoint: mean survival time, dose: 20.0 mg/kg/injection, schedule: Q01DX009 (ip), vehicle: saline 95 % of control

C[S+](C)CCC(N)C(=O)O (centres undefined)
inactive: endpoint: median survival time, dose: 3.13 mg/kg/injection, schedule: Q04DX002 (ip), vehicle: saline 105 % of control | endpoint: median survival time, dose: 6.25 mg/kg/injection, schedule: Q04DX002 (ip), vehicle: saline 105 % of control | endpoint: median survival time, dose: 12.5 mg/kg/injection, schedule: Q04DX002 (ip), vehicle: saline 108 % of control | endpoint: median survival time, dose: 25.0 mg/kg/injection, schedule: Q04DX002 (ip), vehicle: saline 100 % of control | endpoint: median survival time, dose: 50.0 mg/kg/injection, schedule: Q04DX002 (ip), vehicle: saline 117 % of control

CC(C)N(CC(=O)O)CC(=O)O
inactive: endpoint: mean survival time, dose: 100.0 mg/kg/injection, schedule: Q01DX001 (ip), vehicle: saline 100 % of control | endpoint: mean survival time, dose: 200.0 mg/kg/injection, schedule: Q01DX001 (ip), vehicle: saline 100 % of control

COC1C(CO)OC(n2cnc3c(=S)nc(N)[nH]c32)C1O (centres undefined)
inactive: endpoint: mean survival time, dose: 12.5 mg/kg/injection, schedule: Q01DX009 (ip), vehicle: Klucel (hydroxypropylcellulose) (HPC) 98 % of control and 101 % of control | endpoint: mean survival time, dose: 25.0 mg/kg/injection, schedule: Q01DX009 (ip), vehicle: Klucel (hydroxypropylcellulose) (HPC) 101 % of control and 106 % of control | endpoint: mean survival time, dose: 50.0 mg/kg/injection, schedule: Q01DX009 (ip), vehicle: Klucel (hydroxypropylcellulose) (HPC) 101 % of control and 106 % of control | [14] 123 % of control | endpoint: mean survival time, dose: 400.0 mg/kg/injection, schedule: Q01DX009 (ip), vehicle: Klucel (hydroxypropylcellulose) (HPC) 100 % of control

CC(=O)[CH-]C(C)=O.CC(=O)[CH-]C(C)=O.CC(N)CN.[Ni+2]
inactive: [16] 100 % of control

Cc1ccc(C2=C(Br)C(=O)C(c3ccc(C)cc3C)=C(Br)C2=O)c(C)c1
inactive: [7] 92 % of control | [10] 92 % of control | [15] 101 % of control

CCOC(=O)N(C)CC1C(=O)Nc2ccccc21 (centres undefined)
inactive: [20] 105 % of control | [21] 110 % of control | [22] 102 % of control

CCOc1c[n+](C)c(C)s1
inactive: endpoint: mean survival time, dose: 50.0 mg/kg/injection, schedule: Q01DX001 (ip), vehicle: carboxymethylcellulose (CMC) 94 % of control | [23] 92 % of control | [24] 103 % of control

Cc1[nH]c(=S)[nH]c(=O)c1CC(C)O (centres undefined)
inactive: [8] 97 % of control | [11] 90 % of control | endpoint: mean survival time, dose: 400.0 mg/kg/injection, schedule: Q01DX009 (ip), vehicle: saline with Tween-80 98 % of control

CN(C)c1ccc(/C=N/Nc2ncnc(Cl)c2N)cc1
inactive: [23] 98 % of control | [24] 91 % of control | endpoint: mean survival time, dose: 400.0 mg/kg/injection, schedule: Q01DX001 (ip), vehicle: carboxymethylcellulose (CMC) 95 % of control

Cc1ccc(S(=O)(=O)c2ccccc2)cc1
inactive: [2] 88 % of control | [4] 87 % of control | [19] 92 % of control

CCOC(=O)Nc1cc(NCC(=O)CCc2ccccc2)c([N+](=O)[O-])c(N)n1
inactive: endpoint: mean survival time, dose: 100.0 mg/kg/injection, schedule: Q01DX001 (ip), vehicle: Klucel (hydroxypropylcellulose) (HPC) 93 % of control | endpoint: mean survival time, dose: 200.0 mg/kg/injection, schedule: Q01DX001 (ip), vehicle: Klucel (hydroxypropylcellulose) (HPC) 91 % of control | endpoint: mean survival time, dose: 400.0 mg/kg/injection, schedule: Q01DX001 (ip), vehicle: Klucel (hydroxypropylcellulose) (HPC) 91 % of control
